Tests used:
Experiment in all cases: Test D preemergence
Type in all cases: in vivo
Settings in all cases: scale 0 to 100
[1] = test system: blackgrass (Alopecurus myosuroides)
Description: (§1) Seeds of plant species selected from bluegrass (annual bluegrass, Poa annua), blackgrass (Alopecurus myosuroides), canarygrass (Phalaris minor), chickweed (common chickweed, Stellaria media), cutleaf geranium (Geranium dissectum), galium (catchweed bedstraw, Galium aparine), downy bromegrass (Bromus tectorum), field poppy (Papaver rhoeas), field violet (Viola arvensis), green foxtail (Setaria viridis), deadnettle (henbit deadnettle, Lamium amplexicaule), Italian ryegrass (Lolium multiflorum), kochia (Kochia scoparia), lambsquarters (Chenopodium album), oilseed rape (Brassica napus), pigweed (Amaranthus retroflexus), chamomile (scentless chamomile, Matricaria inodora), Russian thistle (Salsola kali), speedwell (bird's-eye speedwell, Veronica persica), spring barley (Hordeum vulgare), spring wheat (Triticum aestivum), wild buckwheat (Polygonum convolvulus), wild mustard (Sinapis arvensis), wild oat (Avenafatua), wild radish (Raphanus raphanistrum), windgrass (Apera spica-venti), winter barley (Hordeum vulgare), and winter wheat (Triticum aestivum) were planted into a silt loam soil and treated preemergence with test chemicals formulated in a non-phytotoxic solvent mixture which included a surfactant.
(§2) At the same time, these species were planted in pots containing Redi-Earth® planting medium (Scotts Company, 14111 Scottslawn Road, Marysville, Ohio 43041) comprising spaghnum peat moss, vermiculite, wetting agent and starter nutrients and treated with postemergence applications of the test chemicals formulated in the same manner. Plants ranged in height from 2 to 18 cm (1- to 4-leaf stage). Treated plants and controls were maintained in a controlled growth environment for 14 to 21 days after which time all species were compared to controls and visually evaluated. Plant response ratings, summarized in Table D, are based on a scale of 0 to 100 where 0 is no effect and 100 is complete control. A dash (-) response means no test result.

[2] = test system: wild mustard (Sinapis arvensis)
Description: as §1, §2

[3] = test system: Russian thistle (Salsola kali)
Description: as §1, §2

[4] = test system: downy bromegrass (Bromus tectorum)
Description: as §1, §2

[5] = test system: chickweed (common chickweed, Stellaria media)
Description: as §1, §2

[6] = test system: cutleaf geranium (Geranium dissectum)
Description: as §1, §2

[7] = test system: canarygrass (Phalaris minor)
Description: as §1, §2

[8] = test system: speedwell (bird's-eye speedwell, Veronica persica)
Description: as §1, §2

[9] = test system: wild buckwheat (Polygonum convolvulus)
Description: as §1, §2

[10] = test system: bluegrass (annual bluegrass, Poa annua)
Description: as §1, §2

| Structure (SMILES) | Plant response rating, Blackgrass ([1]; 16 g ai/ha) | Plant response rating, Blackgrass ([1]; 31 g ai/ha) | Plant response rating, Blackgrass ([1]; 62 g ai/ha) | Plant response rating, Blackgrass ([1]; 125 g ai/ha) | Plant response rating, Mustard, Wild ([2]; 16 g ai/ha) | Plant response rating, Mustard, Wild ([2]; 31 g ai/ha) | Plant response rating, Mustard, Wild ([2]; 62 g ai/ha) | Plant response rating, Mustard, Wild ([2]; 125 g ai/ha) | Plant response rating, Russian Thistle ([3]; 16 g ai/ha) | Plant response rating, Russian Thistle ([3]; 31 g ai/ha) | Plant response rating, Russian Thistle ([3]; 62 g ai/ha) | Plant response rating, Russian Thistle ([3]; 125 g ai/ha) | Plant response rating, Bromegrass, Downy ([4]; 16 g ai/ha) | Plant response rating, Bromegrass, Downy ([4]; 31 g ai/ha) | Plant response rating, Bromegrass, Downy ([4]; 62 g ai/ha) | Plant response rating, Bromegrass, Downy ([4]; 125 g ai/ha) | Plant response rating, Chickweed ([5]; 16 g ai/ha) | Plant response rating, Chickweed ([5]; 31 g ai/ha) | Plant response rating, Chickweed ([5]; 62 g ai/ha) | Plant response rating, Chickweed ([5]; 125 g ai/ha) | also measured |
| --- | --- | --- | --- | --- | --- | --- | --- | --- | --- | --- | --- | --- | --- | --- | --- | --- | --- | --- | --- | --- | --- |
| Fc1cnc(Oc2c(Br)cccc2Oc2ncc(Cl)cn2)nc1 [Compound 22] | 5 | 20 | 35 | 55 | 20 | 30 | 100 | 100 | 0 | 0 | 5 | 5 | 15 | 25 | 30 | 35 | 10 | 25 | 100 | 100 | Plant response rating, Geranium, Cutleaf ([6]; 16 g ai/ha): 25; Plant response rating, Geranium, Cutleaf ([6]; 31 g ai/ha): 35; Plant response rating, Geranium, Cutleaf ([6]; 62 g ai/ha): 70; Plant response rating, Geranium, Cutleaf ([6]; 125 g ai/ha): 100; Plant response rating, Canarygrass ([7]; 16 g ai/ha): 10; Plant response rating, Canarygrass ([7]; 31 g ai/ha): 25; Plant response rating, Canarygrass ([7]; 62 g ai/ha): 35; Plant response rating, Canarygrass ([7]; 125 g ai/ha): 55; Plant response rating, Speedwell ([8]; 16 g ai/ha): 85; Plant response rating, Speedwell ([8]; 31 g ai/ha): 90; Plant response rating, Speedwell ([8]; 62 g ai/ha): 100; Plant response rating, Speedwell ([8]; 125 g ai/ha): 100; Plant response rating, Buckwheat, Wild ([9]; 16 g ai/ha): 10; Plant response rating, Buckwheat, Wild ([9]; 31 g ai/ha): 10; Plant response rating, Buckwheat, Wild ([9]; 62 g ai/ha): 15; Plant response rating, Buckwheat, Wild ([9]; 125 g ai/ha): 85; Plant response rating, Bluegrass ([10]; 16 g ai/ha): 0; Plant response rating, Bluegrass ([10]; 31 g ai/ha): 20; Plant response rating, Bluegrass ([10]; 62 g ai/ha): 60; Plant response rating, Bluegrass ([10]; 125 g ai/ha): 90 |
| Fc1cnc(Oc2c(F)cccc2Oc2ncc(Cl)cn2)nc1 [Compound 23] | 20 | 30 | 70 | 85 | 98 | 100 | 100 | 100 | 0 | 0 | 5 | 5 | 5 | 25 | 35 | 70 | 50 | 100 | 100 | 100 | Plant response rating, Geranium, Cutleaf ([6]; 16 g ai/ha): 25; Plant response rating, Geranium, Cutleaf ([6]; 31 g ai/ha): 100; Plant response rating, Geranium, Cutleaf ([6]; 62 g ai/ha): 100; Plant response rating, Geranium, Cutleaf ([6]; 125 g ai/ha): 100; Plant response rating, Canarygrass ([7]; 16 g ai/ha): 60; Plant response rating, Canarygrass ([7]; 31 g ai/ha): 65; Plant response rating, Canarygrass ([7]; 62 g ai/ha): 80; Plant response rating, Canarygrass ([7]; 125 g ai/ha): 85; Plant response rating, Speedwell ([8]; 16 g ai/ha): 100; Plant response rating, Speedwell ([8]; 31 g ai/ha): 100; Plant response rating, Speedwell ([8]; 62 g ai/ha): 100; Plant response rating, Speedwell ([8]; 125 g ai/ha): 100; Plant response rating, Buckwheat, Wild ([9]; 16 g ai/ha): 40; Plant response rating, Buckwheat, Wild ([9]; 31 g ai/ha): 50; Plant response rating, Buckwheat, Wild ([9]; 62 g ai/ha): 100; Plant response rating, Buckwheat, Wild ([9]; 125 g ai/ha): 100; Plant response rating, Bluegrass ([10]; 16 g ai/ha): 20; Plant response rating, Bluegrass ([10]; 31 g ai/ha): 65; Plant response rating, Bluegrass ([10]; 62 g ai/ha): 80; Plant response rating, Bluegrass ([10]; 125 g ai/ha): 100 |
| FC(F)(F)c1cnc(Oc2c(Br)cccc2Oc2ncc(Cl)cn2)nc1 [Compound 24] | 15 | 25 | 35 | 55 | 15 | 35 | 55 | 100 | 0 | 0 | 35 | 80 | 20 | 35 | 35 | 45 | 10 | 100 | 100 | 100 | Plant response rating, Geranium, Cutleaf ([6]; 16 g ai/ha): 75; Plant response rating, Geranium, Cutleaf ([6]; 31 g ai/ha): 75; Plant response rating, Geranium, Cutleaf ([6]; 62 g ai/ha): 90; Plant response rating, Geranium, Cutleaf ([6]; 125 g ai/ha): 100; Plant response rating, Canarygrass ([7]; 16 g ai/ha): 25; Plant response rating, Canarygrass ([7]; 31 g ai/ha): 30; Plant response rating, Canarygrass ([7]; 62 g ai/ha): 35; Plant response rating, Canarygrass ([7]; 125 g ai/ha): 45; Plant response rating, Speedwell ([8]; 16 g ai/ha): 35; Plant response rating, Speedwell ([8]; 31 g ai/ha): 100; Plant response rating, Speedwell ([8]; 62 g ai/ha): 100; Plant response rating, Speedwell ([8]; 125 g ai/ha): 100; Plant response rating, Buckwheat, Wild ([9]; 16 g ai/ha): 10; Plant response rating, Buckwheat, Wild ([9]; 62 g ai/ha): 20; Plant response rating, Buckwheat, Wild ([9]; 125 g ai/ha): 100; Plant response rating, Bluegrass ([10]; 16 g ai/ha): 15; Plant response rating, Bluegrass ([10]; 31 g ai/ha): 20; Plant response rating, Bluegrass ([10]; 62 g ai/ha): 25; Plant response rating, Bluegrass ([10]; 125 g ai/ha): 35 |

Reference: US20170190671A1, “BIS(ARYL)CATECHOL DERIVATIVES AS HERBICIDES” (E I DU PONT DE NEMOURS AND COMPANY, priority 2014, published 2017)
